This is an account of results in ChEMBL document CHEMBL4765379, “Synthesis and biological evaluation of diaryl urea derivatives designed as potential anticarcinoma agents using de novo structure-based lead optimization approach” (Eur J Med Chem, 2020).

Experiment [1] relates to HT-29. The experiment can be described thus: Antiproliferative activity against human HT-29 cells assessed as reduction in cell growth incubated for 48 hrs by MTT assay. The format is functional, cell-based. As to conditions: HT-29, 48 h.
The subject of another experiment is A549. The experiment can be described thus: Antiproliferative activity against human A549 cells assessed as reduction in cell growth incubated for 48 hrs by MTT assay. The format is functional, cell-based. The following applies: A549, 48 h.
In experiment [2] the test system is HT-29. The experiment can be described thus: Induction of apoptosis in human HT-29 cells assessed as viable cells at 15 uM incubated for 48 hrs by annexin V-FITC and PI staining based flow cytometry analysis (reference value: 88.2 %). The following applies: read-out: Activity. The class given is functional.
Experiment [3] deals with HT-29. The experiment can be described thus: Induction of apoptosis in human HT-29 cells assessed as early apoptotic cells at 15 uM incubated for 48 hrs by annexin V-FITC and PI staining based flow cytometry analysis (reference value: 1.01 %). The format is functional.
The subject of experiment [4] is HT-29. The experiment can be described thus: Induction of apoptosis in human HT-29 cells assessed as necrotic cells at 15 uM incubated for 48 hrs by annexin V-FITC and PI staining based flow cytometry analysis (reference value: 9.68 %). The format is functional.
For experiment [5], the system named is HT-29. The experiment can be described thus: Induction of cell cycle arrest in human HT-29 cells assessed as G1 phase accumulation at 15 uM incubated for 48 hrs by PI staining based flow cytometry analysis (reference value: 56.39 %). The class given is functional.
Experiment [6] deals with HT-29. The experiment can be described thus: Induction of cell cycle arrest in human HT-29 cells assessed as S phase accumulation at 15 uM incubated for 48 hrs by PI staining based flow cytometry analysis (reference value: 36.98 %). The format is functional.
Experiment [7] concerns HT-29. Briefly: Induction of cell cycle arrest in human HT-29 cells assessed as G2 phase accumulation at 15 uM incubated for 48 hrs by PI staining based flow cytometry analysis (reference value: 11.7 %). The format is functional.
Experiment [8] relates to HT-29. Briefly: Induction of cell cycle arrest in human HT-29 cells assessed as subG1 phase accumulation at 15 uM incubated for 48 hrs by PI staining based flow cytometry analysis (reference value: 0.06 %). The class given is functional.

Each structure is given as a SMILES string.

Consider `O=C(Nc1ccccc1)Nc1ccc(OC(=O)c2ccc([N+](=O)[O-])cc2)cc1`, for which the IC50 in the experiment on HT-29 [1] came out at 185 µM; in the experiment with A549 it was 120 µM.

Take `O=C(Nc1ccccc1)Nc1ccc(NC(=O)c2ccccc2)cc1`: the IC50 in the experiment with HT-29 [1] was determined as 12.7 µM; in the experiment on A549, 23.9 µM.

Consider `O=C(Nc1ccccc1)Nc1ccc(OC(=O)c2ccc(F)cc2)cc1`, for which the IC50 with HT-29 [1] was determined as 128 µM; in the experiment with A549, 38.5 µM.

Consider `Cc1ccc(NC(=O)Nc2ccc(OC(=O)c3ccccc3)cc2)cc1`, for which the values for the IC50 in the experiment with HT-29 [1] and in the experiment on A549 were 104 µM and 47.7 µM, respectively.

As for `COc1ccc(C(=O)Oc2ccc(NC(=O)Nc3ccccc3)cc2)cc1`, the IC50 in the experiment with HT-29 [1] was 175 µM; with A549, 60.2 µM.

For the compound `O=C(Nc1ccc(OC(=O)c2ccc(Cl)cc2)cc1)Nc1ccc(Cl)c(C(F)(F)F)c1`, the IC50 was 8.32 µM in the experiment with HT-29 [1] and 6.62 µM in the experiment on A549.

`CNC(=O)c1cc(Oc2ccc(NC(=O)Nc3ccc(Cl)c(C(F)(F)F)c3)cc2)ccn1` [SORAFENIB]: the IC50 in the experiment on HT-29 [1] was 17.3 µM; in the experiment on A549 it was 5.62 µM. Also, the viability at 15 µM in the experiment on HT-29 [2] came to 81.3%. For the same compound, the Activity in the experiment on HT-29 [3] is 5.76%; in the experiment on HT-29 [4], 8.72%; in the experiment on HT-29 [5], 75.23%; in the experiment with HT-29 [6], 12.19%; in the experiment with HT-29 [7] it was 14.54%; in the experiment on HT-29 [8], 1.69%.

As to `O=C(Nc1ccc(OC(=O)c2ccccc2)cc1)Nc1ccc(Cl)c(C(F)(F)F)c1`, the IC50 with HT-29 [1] is 151 µM; in the experiment with A549, 30.1 µM.

`Cc1ccc(C(=O)Oc2ccc(NC(=O)Nc3ccccc3)cc2)cc1`: the results for the IC50 in the experiment on HT-29 [1] and with A549 were 19.9 µM and 18.9 µM, respectively.
